Structures are written as SMILES.

Broadly, the IC50 is the point on the concentration scale where inhibition reaches its midpoint. A lower IC50 goes with greater potency.

The target of assay [1] is ROCK2 (Homo sapiens, UniProt O75116). The experiment in a line: ROCK2 kinase IC50 assay (CISBIO HTRF KinEASE-STK S2 kit). In kind it is biochemical. The note with it: incubated at room temperature for 2 hours. Here is the method: The kinase IC50 was determined by a commercialized CISBIO kinase detection kit, HTRF KinEASE-STK S2 kit (62ST2PEC). ROCK2 (01-119) employed in the reaction was purchased from Carna Biosciences.
Before the assay, the following working solutions as needed were formulated with corresponding reagents according to the instruction of the kinase detection kit: 1×kinase buffer, 5×STK-52 substrate working solution (1.5 μM) and 5×ATP working solution (1.5 μM), 5×ROCK2 kinase working solution, 4×Streptavidin-XL665 working solution, and 4×STK-Ab-Cryptate 2 detection solution. Then the assay was performed according to the following procedure.
A solution of a compound at a concentration of 10000 nM was prepared with the 1×kinase buffer containing 2.5% DMSO. Gradient dilution of the solution of the compound was performed with the kinase buffer containing DMSO, so as to obtain solutions of a test compound at 9 different concentrations. In addition to wells of test compounds, a positive well (containing all the reagents except the compound) and a negative well (containing all the reagents except the test compound and kinase) were set. Except for the control wells (positive and negative wells), a solution of a test compound (4 μL) was added to each of the reaction wells, and a solution of 2.5% DMSO was added to the control wells. Then the substrate ([…], 2 μL. 5×STK-S2 substrate working solution) was added to each of the reaction wells. The 5×ROCK2 kinase working solution (2 μL, containing 1.4 ng ROCK2 kinase) was added to each of the reaction wells except for the negative well, the volume of which was made up with the 1×kinase buffer (2 μL). The 5×ATP working solution (2 μL) was added to each of the reaction wells, and the mixtures were incubated at room temperature for 2 hours. After the kinase reaction was complete, the 4×Streptavidin-XL665 working solution was added to each of the reaction wells, the solutions were mixed, followed by immediate addition of the 4×STK-Ab-Cryptate 2 detection solution (5 μL), and the mixtures were incubated at room temperature for 1 hour. The fluorescence signal was read on ENVISION (Perkinelmer) (excitation wavelength: 320 nm, and emission wavelength: 665 nm and 615 nm). The inhibitory rate in each well was calculated based on the fluorescence intensity value: ER (Emission Ratio)=(fluorescence intensity at 665 nm/fluorescence intensity at 615 nm); inhibitory rate=(ERpositive−ERtest compound)/(ERpositive−ERnegative)*100%. Curves were plotted and fitted to obtain the median inhibitory concentration (IC50) of each teat compound with the PRISM 5.0 software.
A general note: Time-resolved FRET reads energy transfer from a long-lived donor to a nearby acceptor.

Assay [2] concerns the target ROCK1 (Homo sapiens (Human), UniProt Q13464). The experiment in a line: ROCK1 kinase IC50 assay (biological test method similar to the ROCK2 assay). In kind it is biochemical. In outline: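 HTRF KinEASE-STK S2 assay with the STK-S2 biotinylated substrate and ATP, at 5× working solutions of 1.5 µM each. Kinase reaction with 9-point compound dilutions ran 2 h at room temperature, followed by 1 h streptavidin-XL665/Cryptate detection. The 665/615 nm ratio was normalised to no-compound and no-kinase wells, and IC50 was obtained by curve fitting.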

ROCK1, sequence (Q13464 whole entry, species assumed): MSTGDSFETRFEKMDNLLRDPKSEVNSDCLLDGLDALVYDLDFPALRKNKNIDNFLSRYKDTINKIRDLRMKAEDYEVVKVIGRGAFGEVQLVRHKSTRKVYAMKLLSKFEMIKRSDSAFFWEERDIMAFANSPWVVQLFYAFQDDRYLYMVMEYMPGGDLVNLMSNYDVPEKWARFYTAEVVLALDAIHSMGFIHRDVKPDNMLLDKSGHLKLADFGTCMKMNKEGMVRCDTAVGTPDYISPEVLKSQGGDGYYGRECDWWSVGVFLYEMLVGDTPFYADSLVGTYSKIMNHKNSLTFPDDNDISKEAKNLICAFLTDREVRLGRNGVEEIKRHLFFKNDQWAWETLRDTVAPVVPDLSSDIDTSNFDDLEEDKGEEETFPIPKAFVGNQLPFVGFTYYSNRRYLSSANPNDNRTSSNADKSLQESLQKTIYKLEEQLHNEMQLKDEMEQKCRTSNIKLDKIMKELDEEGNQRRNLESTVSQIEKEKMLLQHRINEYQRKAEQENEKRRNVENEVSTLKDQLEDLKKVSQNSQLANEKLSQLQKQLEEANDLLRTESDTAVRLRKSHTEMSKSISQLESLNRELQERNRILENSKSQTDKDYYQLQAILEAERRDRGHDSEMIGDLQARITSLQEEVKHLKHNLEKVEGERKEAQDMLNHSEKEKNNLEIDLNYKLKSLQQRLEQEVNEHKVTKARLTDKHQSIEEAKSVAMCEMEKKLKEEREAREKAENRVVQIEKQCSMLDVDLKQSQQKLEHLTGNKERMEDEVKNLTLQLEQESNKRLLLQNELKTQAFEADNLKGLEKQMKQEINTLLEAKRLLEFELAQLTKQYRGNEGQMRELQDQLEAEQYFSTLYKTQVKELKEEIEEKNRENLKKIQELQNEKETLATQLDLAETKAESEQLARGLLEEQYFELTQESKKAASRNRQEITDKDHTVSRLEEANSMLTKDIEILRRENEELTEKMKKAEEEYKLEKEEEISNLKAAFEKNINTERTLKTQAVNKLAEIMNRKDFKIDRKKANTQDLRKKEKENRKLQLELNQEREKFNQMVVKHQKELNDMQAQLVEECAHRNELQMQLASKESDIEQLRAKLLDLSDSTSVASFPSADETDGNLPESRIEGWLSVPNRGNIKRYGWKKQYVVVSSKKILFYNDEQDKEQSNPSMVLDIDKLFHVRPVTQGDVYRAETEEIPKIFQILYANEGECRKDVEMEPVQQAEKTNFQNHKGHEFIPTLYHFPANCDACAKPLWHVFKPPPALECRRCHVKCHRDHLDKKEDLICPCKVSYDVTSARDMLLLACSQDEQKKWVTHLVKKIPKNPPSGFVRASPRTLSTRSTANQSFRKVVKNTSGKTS

As to `O=C(c1cc2ccc(-c3nccc(Nc4ccc(-c5cn[nH]c5)cc4)n3)cc2[nH]1)N1CCC2(C1)CC2(F)F` (stereo not drawn) [TDI01486, (6-(4-((4-(1H-pyrazol-4-yl)phenyl)amino)pyrimidin-2-yl)-1H-indol-2-yl)(1,1-difluoro-5-azaspiro[2.4]heptan-5-yl)methanone], the IC50 in assay [1] came out at 0.185 µM; in assay [2] it was 3 µM.

Consider `O=C(NC1CC(F)C1)c1cc2ccc(-c3nc(Nc4ccc(-c5cn[nH]c5)cc4)c4sccc4n3)cc2[nH]1` (stereo not drawn) [TDI01487, 6-(4-((4-(1H-pyrazol-4-yl)phenyl)amino)thieno [3,2-d]pyrimidin-2-yl)-N-(3-fluorocyclobutyl)-1H-indole-2-carboxamide], for which the results for the IC50 in assay [1] and in assay [2] were 0.193 µM and 5.04 µM, respectively.

Consider `O=C(c1cc2ccc(-c3nccc(Nc4ccc(-c5cn[nH]c5)cc4)n3)cc2[nH]1)N1CC2C(C1)C2(F)F` (stereo not drawn) [TDI01490, (6-(4-((4-(1H-pyrazol-4-yl)phenyl)amino)pyrimidin-2-yl)-1H-indol-2-yl)(6,6-difluoro-3-azabicyclo[3.1.0]hexan-3-yl)methanone], for which the IC50 in assay [1] worked out at 0.081 µM; in assay [2], 2.25 µM.

For the compound `O=C(c1cc2ccc(-c3nccc(Nc4ccc(-c5cn[nH]c5)cc4)n3)cc2[nH]1)N1CCS(=O)(=O)CC1` [TDI01497, (6-(4-((4-(1H-pyrazol-4-yl)phenyl)amino)pyrimidin-2-yl)-1H-indol-2-yl)(1,1-dioxidothiomorpholino) methanone], the IC50 was 0.319 µM in assay [1] and more than 10 µM in assay [2].

With `O=C(c1cc2ccc(-c3nccc(Nc4ccc(-c5cn[nH]c5)cc4)n3)cc2[nH]1)N1CC(=NO)C1` [TDI01498, (6-(4-((4-(1H-pyrazol-4-yl)phenyl)amino)pyrimidin-2-yl)-1H-indol-2-yl)(3-(hydroxyimino)azetidin-1-yl)methanone], the IC50 is 0.415 µM in assay [1] and more than 10 µM in assay [2].

With `N#CC1CN(C(=O)c2cc3ccc(-c4nccc(Nc5ccc(-c6cn[nH]c6)cc5)n4)cc3s2)C1` [TDI01500, 1-(6-(4-((4-(1H-pyrazol-4-yl)phenyl)-amino)-pyrimidin-2-yl)benzo[b]-thiophene-2-carbonyl)-azetidine-3-carbonitrile], the IC50 was 0.013 µM in assay [1] and more than 10 µM in assay [2].

Regarding `Cn1c(C(=O)N2CCC(O)(C(F)(F)F)C2)cc2ccc(-c3nccc(Nc4ccc(-c5cn[nH]c5)cc4)n3)cc21` (stereo not drawn) [TDI01505, (6-(4-((4-(1H-pyrazol-4-yl)phenyl)amino)pyrimidin-2-yl)-1-methyl-1H-indol-2-yl) (3-hydroxy-3-(trifluoromethyl)pyrrolidin-1-yl)methanone], the IC50 amounted to 0.209 µM in assay [1] and 5.67 µM in assay [2].

Turning to `Cn1c(C(=O)N2CCC(C(F)(F)F)C2)cc2ccc(-c3nccc(Nc4ccc(-c5cn[nH]c5)cc4)n3)cc21` (stereo not drawn) [TDI01506, (6-(4-((4-(1H-pyrazol-4-yl)phenyl)amino)pyrimidin-2-yl)-1-methyl-1H-indol-2-yl)(3-(trifluoromethyl)pyrrolidin-1-yl) methanone], the IC50 in assay [1] is 0.295 µM; in assay [2], 7.3 µM.

Take `Cn1c(C(=O)N2CCC(F)(F)C2)cc2ccc(-c3nccc(Nc4ccc(-c5cn[nH]c5)cc4)n3)cc21` [TDI01507, (6-(4-((4-(1H-pyrazol-4-yl)phenyl)amino)pyrimidin-2-yl)-1-methyl-1H-indol-2-yl)(3,3-difluoropyrrolidin-1-yl)methanone]: the IC50 in assay [1] worked out at 0.113 µM; in assay [2], 6.84 µM.

As to `Cn1c(C(=O)N2CC(F)(F)C2)cc2ccc(-c3nc(Nc4ccc(-c5cn[nH]c5)cc4)c4sccc4n3)cc21` [TDI01508, (6-(4-((4-(1H-pyrazol-4-yl)phenyl)amino)thieno[3,2-d]pyrimidin-2-yl)-1-methyl-1H-indol-2-yl)(3,3-difluoroazetidin-1-yl)methanone], the values for the IC50 in assay [1] and in assay [2] were 0.159 µM and more than 10 µM, respectively.

In the case of `Cn1c(C(=O)N2CC3C(C2)C3(F)F)cc2ccc(-c3nccc(Nc4ccc(-c5cn[nH]c5)cc4)n3)cc21` (stereo not drawn) [TDI01512, (6-(4-((4-(1H-pyrazol-4-yl)phenyl)amino)pyrimidin-2yl)-1-methyl-1H-indol-2-yl)(6,6-difluoro-3-azabicyclo[3.1.0]hexan-3-yl)methanone], the results for the IC50 in assay [1] and in assay [2] were 0.022 µM and 3.63 µM, respectively.

As to `Cn1c(C(=O)N2CCC3(C2)CC3(F)F)cc2ccc(-c3nccc(Nc4ccc(-c5cn[nH]c5)cc4)n3)cc21` (stereo not drawn) [TDI01513, (6-(4-{(4-(1H-pyrazol-4-yl)phenyl)amino)pyrimidin-2-yl)-1-methyl-1H-indol-2-yl)(1,1-difluoro-5-azaspiro[2.4]heptan-5-yl)methanone], the IC50 worked out at 0.269 µM in assay [1] and 7.42 µM in assay [2].

For the compound `Cn1c(C(=O)N2C[C@@H](F)[C@@H](F)C2)cc2ccc(-c3nccc(Nc4ccc(-c5cn[nH]c5)cc4)n3)cc21` [TDI01514, (6-(4-((4-(1H-pyrazol-4-yl)phenyl)amino)pyrimidin-2-yl)-1-methyl-1H-indol-2-yl) ((3S,4R)-3,4-difluoropyrrolidin-1-yl)methanone], the results for the IC50 in assay [1] and in assay [2] were 0.049 µM and 2.73 µM, respectively.

For the compound `Cn1c(C(=O)N2CC(=CC#N)C2)cc2ccc(-c3nccc(Nc4ccc(-c5cn[nH]c5)cc4)n3)cc21` [TDI01515, 2-(1-(6-(4-((4-(1H-pyrazol-4-yl)phenyl)amino)pyrimidin-2-yl)-1-methyl-1H-indole-2-carbonyl)azetidin-3-ylidene) acetonitrile], the IC50 in assay [1] turned out to be 0.11 µM; in assay [2], 6.86 µM.

Turning to `CC(=O)C1CN(C(=O)c2cc3ccc(-c4nccc(Nc5ccc(-c6cn[nH]c6)cc5)n4)cc3n2C)C1` [TDI01517, 1-(1-(6-(4-((4-(1H-pyrazol-4-yl)phenyl)amino)pyrimidin-2-yl)-1-methyl-1H-indole-2-caibonyl)azetidin-3-yl)ethan-1-one], the IC50 is 0.092 µM in assay [1] and more than 10 µM in assay [2].

For `Cn1c(C(=O)N2C[C@@H](O)[C@H](F)C2)cc2ccc(-c3nccc(Nc4ccc(-c5cn[nH]c5)cc4)n3)cc21` [TDI01518, (6-(4-((4-(lH-pyrazol-4-yl)phenyl)amino)pyrimidin-2-yl)-1-methyl-1H-indol-2-yl)((3R,4R)-3-fluoro-4-hydroxypyrrolidin-1-yl)methanone], the values for the 50% inhibitory concentration (IC50) in assay [1] and in assay [2] were 0.078 µM and 3.03 µM, respectively.

Take `Cn1c(C(=O)N2C[C@@H](F)[C@H](Br)C2)cc2ccc(-c3nccc(Nc4ccc(-c5cn[nH]c5)cc4)n3)cc21` [TDI01519, (6-(4-((4-(1H-py razol-4-yl)phenyl)amino)pyrimidin-2-yl)-1-methyl-1H-indol-2-yl)((3R,4R)-3-bromo-4-fluoropyrrolidin-1-yl)methanone]: the IC50 in assay [1] worked out at 0.102 µM; in assay [2] it was 5.24 µM.

On to `Cn1c(C(=O)N2C[C@@H](O)[C@@H](F)C2)cc2ccc(-c3nccc(Nc4ccc(-c5cn[nH]c5)cc4)n3)cc21` [TDI01520, (6-(4-((4-(1H-pyrazol-4-yl)phenyl)amino)pyrimidin-2-yl)-1-methyl-1H-indol-2-yl)((3S,4R)-3-fluoro-4-hydroxypyrrolidin-1-yl)methanone], for which the IC50 in assay [1] is 0.015 µM; in assay [2], more than 10 µM.

`Cn1c(C(=O)N2CC(O)(C(F)(F)F)C2)cc2ccc(-c3nccc(Nc4ccc(-c5cn[nH]c5)cc4)n3)cc21` [TDI01523, (6-(4-((4-(1H-pyrazol-4-yl)phenyl)amino)pyrimidin-2-yl)-1-methyl-1H-indol-2-yl)(3-hydroxy-3-(trifluoromethyl)azetidin-1-yl)methanone]: the IC50 in assay [1] came out at 0.086 µM; in assay [2], 1.89 µM.

Consider `Cn1c(C(=O)N2CC(F)(CF)C2)cc2ccc(-c3nccc(Nc4ccc(-c5cn[nH]c5)cc4)n3)cc21` [TDI01524, (6-(4-((4-(1H-pyrazol-4-yl)phenyl)amino)pyrimidin-2-yl)-1-methyl-1H-indol-2-yl)(3-fluoro-3-(fluoromethyl)azetidin-1-yl)methanone], for which the results for the IC50 in assay [1] and in assay [2] were 0.03 µM and 1.42 µM, respectively.

For `O=C(c1cc2ccc(-c3nc(Nc4ccc(-c5cn[nH]c5)cc4)c4sccc4n3)cc2s1)N1CC(F)(F)C1` [TDI01525, (6-(4-((4-(1H-pyrazol-4-yl)phenyl)-amino)thieno-[3,2-d]-pyrimidin-2-yl)benzo[b]-thiophen-2-yl)(3,3-difluoro-azetidin-1-yl)methanone], the IC50 in assay [1] is 0.335 µM; in assay [2], more than 10 µM.

The record behind these values is patent publication US11390609B2, “Rho-associated protein kinase inhibitor, pharmaceutical composition comprising same, and preparation method and use thereof” (BEIJING TIDE PHARMACEUTICAL CO., LTD., priority 2017, dated 2022).
